Tests used:
[1] = Solubility of vancomycin loaded into the polymer solution; assay type: physicochemical; conditions: loaded at 50 mg/mL
Description: To prepare a solution for antibiotic delivery, the materials can be sterilized (such as by ethylene oxide gas sterilization) and then dissolved in 150 mM phosphate buffered saline (pH 7.4). After dissolution of the polymer, drug powder (finely ground) is added directly to the polymer solution and vortex mixed to distribute the drug evenly throughout the solution. The solutions can be stored in a freezer until use and thawed at the time of use. The solution then can be injected, brushed, poured, sprayed, or otherwise administered as a liquid at the desired site. The solution can also be allowed to warm to above its initial LCST and then implanted as a soft hydrogel at the desired site. Examples of desired sites for delivery of this material might include the surface of a joint prosthesis, the intramedullary canal before implantation of a prosthesis, an infected area, or any location deemed to have a risk of future infection. An example formulation might be a 30 wt % polymer solution with approximately 50 mg vancomycin hydrochloride loaded per mL of polymer solution.
FIG. 7 graphically illustrates a fraction of loaded vancomycin released from Applicants' injectable and degradable terpolymer I based gels comprising poly(NIPAAm-co-DBLA-co-JAAm) gels loaded with either 50 mg or 5 mg per gel.

[2] = Swelling and degradation of gels in excess PBS (pH 7.4) at 37° C.; assay type: physicochemical
From the text: The control copolymer comprises […] of JAAm. […] These gels dissolve in approximately 20 weeks.
Gels flow when inverted after 7-10 days and dissolve completely within 2-3 weeks.

| Degradation time (37° C., pH 7.4) [2] [weeks] | Molecule | solubility in polymer solution [1] |
| --- | --- | --- |
| – | CN[C@H](CC(C)C)C(=O)N[C@H]1C(=O)N[C@@H](CC(N)=O)C(=O)N[C@H]2C(=O)N[C@H]3C(=O)N[C@H](C(=O)N[C@H](C(=O)O)c4cc(O)cc(O)c4-c4cc3ccc4O)[C@H](O)c3ccc(c(Cl)c3)Oc3cc2cc(c3O[C@@H]2O[C@H](CO)[C@@H](O)[C@H](O)[C@H]2O[C@H]2C[C@](C)(N)[C@H](O)[C@H](C)O2)Oc2ccc(cc2Cl)[C@H]1O [vancomycin] | Some vancomycin is insoluble |
| ~20 | poly(NIPAAm-co-DBLA) | – |
